This assay has as its target T1, Acetylcholinesterase (ACHE) (Electrophorus electricus, UniProt O42275).
T1 construct: purchased Sigma Aldrich
Put plainly: ACHE biosensor inhibition versus incubation time (decrease in amperometric oxidation current). The format is biochemical. The following applies: 1 μM paraoxon, 5 mM ACTH, 400 mV. How it is done: Sodium chloride (NaCl) was purchased from Sigma-Aldrich, ground using mortar and pestle, and filtered into different sizes with 8 in wire cloth sieves. Acetylcholinesterase (ACHE) from Electrophorus electricus was purchased from Sigma Aldrich as lyophilized powder (200-1000 units per mg) and was used without any further purification. ACHE ink aliquots were made by dissolving the enzyme (2 mg) in 1 mL of 50% glycerol and 50% 1× phosphate-buffer solution (0.1 M PBS, pH 7.0), aliquoted into 25 μL, and stored in a −80° C. freezer until use. […]. All other chemicals and solvents were purchased from Sigma-Aldrich and were used without any other purification unless otherwise stated. Water was filtered through a B-Pure Water Purification system (resistivity, […]).
SIIML electrodes were functionalized with ACHE using 1-ethyl-3-(3-dimethylaminopropyl) carbodiimide and N-hydroxysuccinimide (EDC/NHS) chemistry, which facilitated the functionalization of carboxyl groups to the amines within the ACHE enzyme.^39 In summary, the CO2 laser annealed SIIML electrodes were dipped in a solution of EDC/NHS mixture (50 mM EDC, 50 mM NHS) and incubated for 30 min on a tilter mixer. The electrodes were then rinsed with 1×PBS, excess water was blown off but not completely dried as the surface remained still “wetted”, this allowed for easier pipetting onto the slightly hydrophobic graphene surface. […]

T1 sequence (O42275 24-633): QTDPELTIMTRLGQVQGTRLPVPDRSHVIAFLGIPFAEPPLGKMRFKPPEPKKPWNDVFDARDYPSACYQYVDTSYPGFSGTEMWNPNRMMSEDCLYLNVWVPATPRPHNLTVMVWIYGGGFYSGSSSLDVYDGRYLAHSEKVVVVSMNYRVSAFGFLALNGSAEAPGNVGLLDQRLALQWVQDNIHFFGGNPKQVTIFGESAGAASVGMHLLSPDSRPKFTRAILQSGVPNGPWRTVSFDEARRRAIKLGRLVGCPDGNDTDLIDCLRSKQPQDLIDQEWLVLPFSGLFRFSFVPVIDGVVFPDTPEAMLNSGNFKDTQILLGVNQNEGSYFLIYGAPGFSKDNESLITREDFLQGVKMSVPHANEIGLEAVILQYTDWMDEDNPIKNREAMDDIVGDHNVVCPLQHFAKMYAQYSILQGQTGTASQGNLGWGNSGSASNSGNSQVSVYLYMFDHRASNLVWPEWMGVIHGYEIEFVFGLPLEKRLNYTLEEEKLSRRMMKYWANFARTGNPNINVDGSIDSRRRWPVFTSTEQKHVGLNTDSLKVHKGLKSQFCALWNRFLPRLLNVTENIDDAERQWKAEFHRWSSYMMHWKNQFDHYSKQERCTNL

For the molecule `CCOP(=O)(OCC)Oc1ccc([N+](=O)[O-])cc1` [paraoxon], the “inhibition of the sensor (percent of ACHE inhibited)” value was “roughly 50%” (after 100 seconds incubation, large standard deviations) and “about 90%” (after 500 seconds incubation, low standard deviation).

For the origin of these results see patent US11971383B1, “Enhanced 3D porous architectured electroactive devices via impregnated porogens” (Iowa State University Research Foundation, Inc., priority 2018, dated 2024).
